Assay results reported in the NIST ThermoML archive (doi:10.1016/j.fluid.2005.05.012).
Numbers after ± are expanded uncertainties.

Experiment: xn = mol fraction of the nth substance listed
Conditions: 101.33 kPa, Liquid

Compound CN1CCNCC1 [N-methylpiperazine] + CO has a mass density (293.15 K, x2 = 0) of 903.8 ± 0.36 kg/m3, a viscosity (293.15 K, x2 = 0) of 2.1 ± 0.024 mPa·s and a mass density (293.15 K, x2 = 0.1021) of 902.85 ± 0.36 kg/m3. For the same compound, the viscosity (293.15 K, x2 = 0.1021) was 2.103 ± 0.024 mPa·s, the mass density (293.15 K, x2 = 0.1999) was 901.87 ± 0.36 kg/m3 and the viscosity (293.15 K, x2 = 0.1999) was 2.147 ± 0.025 mPa·s. It also gave a mass density (293.15 K, x2 = 0.3286) of 899.35 ± 0.37 kg/m3, a viscosity (293.15 K, x2 = 0.3286) of 2.167 ± 0.025 mPa·s and a mass density (293.15 K, x2 = 0.4143) of 896.64 ± 0.38 kg/m3. For the same compound, the viscosity (293.15 K, x2 = 0.4143) was 2.141 ± 0.025 mPa·s, the mass density (293.15 K, x2 = 0.4991) was 892.94 ± 0.38 kg/m3 and the viscosity (293.15 K, x2 = 0.4991) was 2.04 ± 0.024 mPa·s. It also gave a mass density (293.15 K, x2 = 0.6016) of 886.48 ± 0.4 kg/m3, a viscosity (293.15 K, x2 = 0.6016) of 1.875 ± 0.022 mPa·s and a mass density (293.15 K, x2 = 0.6999) of 876.84 ± 0.42 kg/m3. It also gave a viscosity (293.15 K, x2 = 0.6999) of 1.62 ± 0.019 mPa·s, a mass density (293.15 K, x2 = 0.7998) of 860.91 ± 0.45 kg/m3 and a viscosity (293.15 K, x2 = 0.7998) of 1.306 ± 0.016 mPa·s. It also gave a mass density (293.15 K, x2 = 0.8999) of 834.46 ± 0.5 kg/m3, a viscosity (293.15 K, x2 = 0.8999) of 0.935 ± 0.012 mPa·s and a mass density (298.15 K, x2 = 0) of 899.8 ± 0.37 kg/m3. The viscosity (298.15 K, x2 = 0) was 1.841 ± 0.021 mPa·s, the mass density (298.15 K, x2 = 0.1021) was 899.04 ± 0.37 kg/m3 and the viscosity (298.15 K, x2 = 0.1021) was 1.849 ± 0.021 mPa·s. For the same compound, the mass density (298.15 K, x2 = 0.1999) was 898.08 ± 0.37 kg/m3, the viscosity (298.15 K, x2 = 0.1999) was 1.897 ± 0.022 mPa·s and the mass density (298.15 K, x2 = 0.3286) was 895.54 ± 0.38 kg/m3. It also gave a viscosity (298.15 K, x2 = 0.3286) of 1.924 ± 0.022 mPa·s, a mass density (298.15 K, x2 = 0.4143) of 892.82 ± 0.38 kg/m3 and a viscosity (298.15 K, x2 = 0.4143) of 1.897 ± 0.022 mPa·s. It also gave a mass density (298.15 K, x2 = 0.4991) of 889.13 ± 0.39 kg/m3, a viscosity (298.15 K, x2 = 0.4991) of 1.8 ± 0.021 mPa·s and a mass density (298.15 K, x2 = 0.6016) of 882.68 ± 0.41 kg/m3. It also gave a viscosity (298.15 K, x2 = 0.6016) of 1.654 ± 0.019 mPa·s, a mass density (298.15 K, x2 = 0.6999) of 873 ± 0.43 kg/m3 and a viscosity (298.15 K, x2 = 0.6999) of 1.447 ± 0.017 mPa·s. It also gave a mass density (298.15 K, x2 = 0.7998) of 856.96 ± 0.46 kg/m3, a viscosity (298.15 K, x2 = 0.7998) of 1.169 ± 0.014 mPa·s and a mass density (298.15 K, x2 = 0.8999) of 830.26 ± 0.51 kg/m3. The viscosity (298.15 K, x2 = 0.8999) was 0.854 ± 0.011 mPa·s, the mass density (303.15 K, x2 = 0) was 894.52 ± 0.38 kg/m3 and the viscosity (303.15 K, x2 = 0) was 1.624 ± 0.019 mPa·s. It also gave a mass density (303.15 K, x2 = 0.1021) of 893.84 ± 0.38 kg/m3, a viscosity (303.15 K, x2 = 0.1021) of 1.643 ± 0.019 mPa·s and a mass density (303.15 K, x2 = 0.1999) of 892.86 ± 0.38 kg/m3. For the same compound, the viscosity (303.15 K, x2 = 0.1999) was 1.692 ± 0.02 mPa·s, the mass density (303.15 K, x2 = 0.3286) was 890.39 ± 0.39 kg/m3 and the viscosity (303.15 K, x2 = 0.3286) was 1.722 ± 0.02 mPa·s. It also gave a mass density (303.15 K, x2 = 0.4143) of 887.8 ± 0.4 kg/m3, a viscosity (303.15 K, x2 = 0.4143) of 1.676 ± 0.02 mPa·s and a mass density (303.15 K, x2 = 0.4991) of 884.25 ± 0.4 kg/m3. The viscosity (303.15 K, x2 = 0.4991) was 1.61 ± 0.019 mPa·s, the mass density (303.15 K, x2 = 0.6016) was 877.91 ± 0.42 kg/m3 and the viscosity (303.15 K, x2 = 0.6016) was 1.475 ± 0.018 mPa·s. It also gave a mass density (303.15 K, x2 = 0.6999) of 868.21 ± 0.44 kg/m3, a viscosity (303.15 K, x2 = 0.6999) of 1.299 ± 0.016 mPa·s and a mass density (303.15 K, x2 = 0.7998) of 851.99 ± 0.47 kg/m3. It also gave a viscosity (303.15 K, x2 = 0.7998) of 1.06 ± 0.013 mPa·s, a mass density (303.15 K, x2 = 0.8999) of 825.04 ± 0.53 kg/m3 and a viscosity (303.15 K, x2 = 0.8999) of 0.788 ± 0.01 mPa·s.

For CN1CCNCC1 [N-methylpiperazine] + CCO, the mass density (293.15 K, x2 = 0) was 903.79 ± 0.36 kg/m3, the viscosity (293.15 K, x2 = 0) was 2.1 ± 0.024 mPa·s and the mass density (293.15 K, x2 = 0.1002) was 900.18 ± 0.37 kg/m3. The viscosity (293.15 K, x2 = 0.1002) was 2.141 ± 0.025 mPa·s, the mass density (293.15 K, x2 = 0.1994) was 896.41 ± 0.37 kg/m3 and the viscosity (293.15 K, x2 = 0.1994) was 2.206 ± 0.025 mPa·s. For the same compound, the mass density (293.15 K, x2 = 0.3003) was 891.73 ± 0.38 kg/m3, the viscosity (293.15 K, x2 = 0.3003) was 2.27 ± 0.026 mPa·s and the mass density (293.15 K, x2 = 0.3493) was 889.02 ± 0.39 kg/m3. For the same compound, the viscosity (293.15 K, x2 = 0.3493) was 2.285 ± 0.026 mPa·s, the mass density (293.15 K, x2 = 0.4021) was 885.73 ± 0.4 kg/m3 and the viscosity (293.15 K, x2 = 0.4021) was 2.301 ± 0.026 mPa·s. For the same compound, the mass density (293.15 K, x2 = 0.451) was 882.31 ± 0.41 kg/m3, the viscosity (293.15 K, x2 = 0.451) was 2.288 ± 0.026 mPa·s and the mass density (293.15 K, x2 = 0.5004) was 878.44 ± 0.41 kg/m3. For the same compound, the viscosity (293.15 K, x2 = 0.5004) was 2.267 ± 0.026 mPa·s, the mass density (293.15 K, x2 = 0.5994) was 869.22 ± 0.43 kg/m3 and the viscosity (293.15 K, x2 = 0.5994) was 2.175 ± 0.025 mPa·s. For the same compound, the mass density (293.15 K, x2 = 0.7011) was 857.04 ± 0.46 kg/m3, the viscosity (293.15 K, x2 = 0.7011) was 1.996 ± 0.023 mPa·s and the mass density (293.15 K, x2 = 0.8003) was 841.28 ± 0.49 kg/m3. It also gave a viscosity (293.15 K, x2 = 0.8003) of 1.779 ± 0.021 mPa·s, a mass density (293.15 K, x2 = 0.8982) of 820.12 ± 0.53 kg/m3 and a viscosity (293.15 K, x2 = 0.8982) of 1.526 ± 0.018 mPa·s. For the same compound, the mass density (298.15 K, x2 = 0) was 899.8 ± 0.37 kg/m3, the viscosity (298.15 K, x2 = 0) was 1.841 ± 0.021 mPa·s and the mass density (298.15 K, x2 = 0.1002) was 896.19 ± 0.38 kg/m3. The viscosity (298.15 K, x2 = 0.1002) was 1.87 ± 0.022 mPa·s, the mass density (298.15 K, x2 = 0.1994) was 892.42 ± 0.38 kg/m3 and the viscosity (298.15 K, x2 = 0.1994) was 1.924 ± 0.022 mPa·s. The mass density (298.15 K, x2 = 0.3003) was 887.75 ± 0.39 kg/m3, the viscosity (298.15 K, x2 = 0.3003) was 1.977 ± 0.023 mPa·s and the mass density (298.15 K, x2 = 0.3493) was 885.06 ± 0.4 kg/m3. The viscosity (298.15 K, x2 = 0.3493) was 1.992 ± 0.023 mPa·s, the mass density (298.15 K, x2 = 0.4021) was 881.8 ± 0.41 kg/m3 and the viscosity (298.15 K, x2 = 0.4021) was 2.009 ± 0.023 mPa·s. For the same compound, the mass density (298.15 K, x2 = 0.451) was 878.41 ± 0.41 kg/m3, the viscosity (298.15 K, x2 = 0.451) was 2.001 ± 0.023 mPa·s and the mass density (298.15 K, x2 = 0.5004) was 874.56 ± 0.42 kg/m3. The viscosity (298.15 K, x2 = 0.5004) was 1.977 ± 0.023 mPa·s, the mass density (298.15 K, x2 = 0.5994) was 865.36 ± 0.44 kg/m3 and the viscosity (298.15 K, x2 = 0.5994) was 1.909 ± 0.022 mPa·s. The mass density (298.15 K, x2 = 0.7011) was 853.14 ± 0.47 kg/m3, the viscosity (298.15 K, x2 = 0.7011) was 1.772 ± 0.021 mPa·s and the mass density (298.15 K, x2 = 0.8003) was 837.28 ± 0.5 kg/m3. The viscosity (298.15 K, x2 = 0.8003) was 1.591 ± 0.019 mPa·s, the mass density (298.15 K, x2 = 0.8982) was 815.97 ± 0.54 kg/m3 and the viscosity (298.15 K, x2 = 0.8982) was 1.366 ± 0.016 mPa·s. It also gave a mass density (303.15 K, x2 = 0) of 894.54 ± 0.38 kg/m3, a viscosity (303.15 K, x2 = 0) of 1.624 ± 0.019 mPa·s and a mass density (303.15 K, x2 = 0.1002) of 891.01 ± 0.39 kg/m3. For the same compound, the viscosity (303.15 K, x2 = 0.1002) was 1.65 ± 0.019 mPa·s, the mass density (303.15 K, x2 = 0.1994) was 887.31 ± 0.39 kg/m3 and the viscosity (303.15 K, x2 = 0.1994) was 1.694 ± 0.02 mPa·s. For the same compound, the mass density (303.15 K, x2 = 0.3003) was 882.73 ± 0.4 kg/m3, the viscosity (303.15 K, x2 = 0.3003) was 1.741 ± 0.02 mPa·s and the mass density (303.15 K, x2 = 0.3493) was 880.09 ± 0.41 kg/m3. For the same compound, the viscosity (303.15 K, x2 = 0.3493) was 1.753 ± 0.02 mPa·s, the mass density (303.15 K, x2 = 0.4021) was 876.89 ± 0.42 kg/m3 and the viscosity (303.15 K, x2 = 0.4021) was 1.771 ± 0.021 mPa·s. The mass density (303.15 K, x2 = 0.451) was 873.55 ± 0.42 kg/m3, the viscosity (303.15 K, x2 = 0.451) was 1.764 ± 0.021 mPa·s and the mass density (303.15 K, x2 = 0.5004) was 869.77 ± 0.43 kg/m3. The viscosity (303.15 K, x2 = 0.5004) was 1.746 ± 0.02 mPa·s, the mass density (303.15 K, x2 = 0.5994) was 860.68 ± 0.45 kg/m3 and the viscosity (303.15 K, x2 = 0.5994) was 1.698 ± 0.02 mPa·s. The mass density (303.15 K, x2 = 0.7011) was 848.58 ± 0.48 kg/m3, the viscosity (303.15 K, x2 = 0.7011) was 1.595 ± 0.019 mPa·s and the mass density (303.15 K, x2 = 0.8003) was 832.81 ± 0.51 kg/m3. For the same compound, the viscosity (303.15 K, x2 = 0.8003) was 1.429 ± 0.017 mPa·s, the mass density (303.15 K, x2 = 0.8982) was 811.57 ± 0.55 kg/m3 and the viscosity (303.15 K, x2 = 0.8982) was 1.239 ± 0.015 mPa·s.

With CCCO [propan-1-ol] + CN1CCNCC1 the mass density (293.15 K, x1 = 1) was 803.79 ± 0.56 kg/m3, the viscosity (293.15 K, x1 = 1) was 2.194 ± 0.025 mPa·s and the mass density (298.15 K, x1 = 1) was 799.74 ± 0.57 kg/m3. For the same compound, the viscosity (298.15 K, x1 = 1) was 1.945 ± 0.023 mPa·s, the mass density (303.15 K, x1 = 1) was 795.68 ± 0.58 kg/m3 and the viscosity (303.15 K, x1 = 1) was 1.73 ± 0.02 mPa·s.
